From US5808087A, “Sulfonium salts of pyrrolylbenzimidazoles” (priority 1995, dated 1998) come the findings set out here.

Data set [1] has as its system Colon 26 mouse colon cancer cells. Kind of data set: In vivo antitumor activity, subcutaneously implanted Colon 26 (Test Example 2). On the set-up: species or system mouse (female CDF1 mice). The settings on record: Colon 26 s.c. in CDF1 mice, i.v. on day 1, tumors weighed day 15; for 50% T/C: 21600 min. The protocol:
A cell suspension of Colon 26 mouse colon cancer cells (1×10^7 cells/ml) in HBSS (Hanks' Balanced Salt Solution) was prepared. This cell suspension (0.1 ml each) was implanted subcutaneously into the lateral region of female CDF1 mice (day 0). One day after the tumor cell injection (day 1), the body weight of the mice was measured, and then solutions of test compounds (5% glucose solutions containing 5% Tween 80) were injected intravenously into the tails of the mice. On day 15, the resulting tumors were taken out and weighed.
Percent average weights of tumors of animals in the test groups, in which the compounds were injected, with respect to those in the control group, in which no compounds were injected, were calculated and given as T/C values.

Data set [2] can be described thus: Stability of compounds (2), remaining rate by HPLC after one month at 60° C. (Test Example 4). The data set is classed as physicochemical. The method, then:
Stability of these compounds was investigated. As an index of stability, remaining rates of compounds were obtained by measuring remaining compounds after heating at 60° C. for one month. The remaining rates were measured by HPLC.

The nature of data set [3]: Stability of compounds (1), remaining rate by HPLC after 3 days (Test Example 3). The data set is classed as physicochemical. The protocol:
In order to compare stabilities of the compounds, remaining rates of compounds were obtained by incubating the compounds at about 4° C. and 50° C. for 3 days and measuring comparative peak areas on HPLC (Table 4).

For a further data set, the system named is Mouse B16 melanoma cells. Kind of data set: In vitro tumor cell growth suppressing activity (Test Example 1). The conditions noted are these: 37° C., 3 days. The data set is classed as cell-based. The method, then:
Antitumor activity of the above-mentioned compounds was tested as follows. Mouse B16 melanoma cells were plated on a 96-well culture plate, test compounds were added to the cells one day after, and then the plate was incubated at 37° C. for 3 days under a 5%-CO2 atmosphere. According to the method described in Cancer Res. 48, 589-601, 1988, the concentrations of compounds required to inhibit cell growth by 50% were obtained. The activity is expressed by the concentrations (micrograms/milliliter). The result with distamycin is also shown for comparison.

Converted amounts (≈) assume the structure as drawn.

One may read the amount remaining as what is left of the initial amount, in per cent. Turning to `Cn1cc(NC(=O)CC[S+](C)C)cc1-c1nc2cc(C(=O)Nc3ccc(N(CCCl)CCCl)cc3)ccc2[nH]1` [1*^1], the “50% T/C” value in data set [1] stood at 7.19 mg/kg. Moreover, the amount remaining at 730 h in data set [2] was determined as 96.7%. The compound further came in with a fraction remaining at 72 h in data set [3] (50° C.) of 100%. The “50% Suppressing Concentration” value in the data set on Mouse B16 melanoma cells is 0.71 µg/mL.
Consider `Cn1cc(NC(=O)CC[S+](C)C)cc1-c1nc2cc(C(=O)Nc3ccc(N(CCCl)CCCl)cc3)ccc2[nH]1` [25*^2], for which the “50% T/C” value in data set [1] came to 9.35 mg/kg. In data set [2] (43800 min), this compound yielded a Remaining rate of 99.4%. The “50% Suppressing Concentration” value in the data set with Mouse B16 melanoma cells worked out at 0.99 µg/mL.
As for `COc1cccc2c1C(=O)c1c(O)c3c(c(O)c1C2=O)C[C@@](O)(C(=O)CO)C[C@@H]3O[C@H]1C[C@H](N)[C@H](O)[C@H](C)O1` [Adriamycin, adriamycin, reference compound], the ED50 in data set [1] (Mus musculus, iv, 360 h, read-out: 50% T/C) worked out at 12.4 mg/kg.
Take `Cn1cc(NC(=O)c2cc(NC(=O)c3cc(NC=O)cn3C)cn2C)cc1C(=O)NCCC(=N)N` [Distamycin, distamycin, reference compound]: the IC50 with Mouse B16 melanoma cells (Mus musculus, 72 h, read-out: 50% Suppressing Concentration) came to 36 µg/mL (≈ 74.8 µM).
The compound `Cn1cc(NC(=O)CC[S+](C)C)cc1-c1nc2cc(C(=O)Nc3ccc(N(CCCl)CCCl)cc3)ccc2[nH]1` [IODIDE] displayed an amount remaining at 72 h in data set [3] (4° C.) of 99%. Also, in data set [3] (50° C., 4320 min), the Remaining rate worked out at 83%.
